Legend:
IL-12 = IL-12 mRNA expression in intestinal tissue of DSS-induced ulcerative colitis rats (real-time PCR); format: in vivo, rat
Protocol: (§1) Male LEW/SsN rats were given free access to 3% dextran sulfate sodium (DSS) in drinking water to induce ulcerative colitis. (−)-7-{(2R,4aR,5R,/aR)-2-[(3S)-1,1-difluoro-3-methylpentyl]-2-hydroxy-6-oxooctahydrocyclopenta[b]pyran-5-yl}heptanoic acid (Compound A) was orally administered to the animals twice a day for 10 days. The same amount of the vehicle was administered to control animals. At the 10 days after start of 3% DSS drinking, animals were sacrificed and intestinal tissues were excised. The mRNA expressions of IL-12, IL-1beta, IL-6, and TNF-alpha in the intestinal tissues were measured by real-time polymerase chain reaction technique.
(§2) Each value is relative to the reference gene (GAPDH) level. Data are represented as mean (Arbitrary unit) from 3 to 4 animals.

IL-1beta = IL-1beta mRNA expression in intestinal tissue of DSS-induced ulcerative colitis rats (real-time PCR); format: in vivo, rat
Protocol: as §1, §2

IL-6 = IL-6 mRNA expression in intestinal tissue of DSS-induced ulcerative colitis rats (real-time PCR); format: in vivo, rat
Protocol: as §1, §2

TNF-alpha = TNF-alpha mRNA expression in intestinal tissue of DSS-induced ulcerative colitis rats (real-time PCR); format: in vivo, rat
Protocol: as §1, §2

[1] = Incidence of esophagitis in patients who take NSAIDs (naproxen); format: in vivo, human; conditions: patients on 500 mg naproxen twice a day
Protocol: Patients who take NSAIDs were randomized to one of four treatment groups. All patients received 500 mg of naproxen twice a day. One group received placebo while the other three groups received 18, 36 or 54 mcg of Compound A, respectively, for 12 weeks. The incidence of esophagitis was 10.0%, 6.5% or 6.5% for the groups received 18, 36 or 54 mcg of Compound A, respectively, while it was 20.0% for the group received placebo.

SOCS-1 = SOCS-1 expression in colon of DSS-induced colitis model mice (real-time PCR); format: in vivo, mouse; conditions: C57/B6J mice, 2% DSS for 7 days, 10 μM solution orally once daily for 7 days, GAPDH as reference
Protocol: The experimental model used C57/B6J mice (7-8 weeks old). Colitis was induced by administration of 2% dextran sulfate sodium (DSS) in drinking water for 7 days. Ten (10) μM solution of Compound B ((−)-7-[(2R,4aR,5R,7aR)-2-(1,1-difluoropentyl)-2-hydroxy-6-oxooctahydrocyclopenta[b]pyran-5-yl]heptanoic acid) was administered orally once daily for 7 days from the day of starting DSS treatment. One day after last administration, animals were sacrificed and colons were excised. After extraction of mRNA from colon tissues, real-time PCR analysis of SOCS-1 was conducted using house-keeping gene GAPDH as a reference.

[2] = DSS-induced ulcerative colitis model rats, versus vehicle control
[3] = male LEW/SsN rats, 3% DSS drinking water, oral twice a day for 10 days, intestinal tissue, mean from 3 to 4 animals

| Structure (SMILES) | effect on expression of IL-12 increased by DSS (in words) (IL-12; [2]) | expression of IL-12 (mRNA, relative to GAPDH) (IL-12; [3]) | effect on expression of IL-1beta increased by DSS (in words) (IL-1beta; [2]) | expression of IL-1beta (mRNA, relative to GAPDH) (IL-1beta; [3]) | effect on expression of IL-6 increased by DSS (in words) (IL-6; [2]) | expression of IL-6 (mRNA, relative to GAPDH) (IL-6; [3]) | effect on expression of TNF-alpha increased by DSS (in words) (TNF-alpha; [2]) | expression of TNF-alpha (mRNA, relative to GAPDH) (TNF-alpha; [3]) | incidence of esophagitis ([1]; 18 mcg for 12 weeks (placebo 20.0%)) | incidence of esophagitis ([1]; 36 mcg for 12 weeks (placebo 20.0%)) | incidence of esophagitis ([1]; 54 mcg for 12 weeks (placebo 20.0%)) | effect on overexpression of SOCS-1 gene (in words) (SOCS-1) |
| --- | --- | --- | --- | --- | --- | --- | --- | --- | --- | --- | --- | --- |
| CC[C@H](C)CC(F)(F)[C@@]1(O)CC[C@H]2[C@@H](CC(=O)[C@@H]2CCCCCCC(=O)O)O1 [Compound A, (−)-7-{(2R,4aR,5R,/aR)-2-[(3S)-1,1-difluoro-3-methylpentyl]-2-hydroxy-6-oxooctahydrocyclopenta[b]pyran-5-yl}heptanoic acid] | reduced | 0.99 Arbitrary unit | reduced | 54.83 Arbitrary unit | reduced | 49.25 Arbitrary unit | reduced | 4.68 Arbitrary unit | 10.0% | 6.5% | 6.5% |  |
| CCCCC(F)(F)[C@@]1(O)CC[C@H]2[C@@H](CC(=O)[C@@H]2CCCCCCC(=O)O)O1 [Compound B, (−)-7-[(2R,4aR,5R,7aR)-2-(1,1-difluoropentyl)-2-hydroxy-6-oxooctahydrocyclopenta[b]pyran-5-yl]heptanoic acid] |  |  |  |  |  |  |  |  |  |  |  | reduced |
